Earlier results as cited in patent US20130007910A1, “STRUCTURE OF THE BRASS[…] BRI1, AND MODULATION OF BRI1 SIGNALING” (Salk Institute for Biological Studies (027731), priority 2011, published 2013).

Biological target: T1, BRI1 (Arabidopsis thaliana, UniProt O22476)
T1 sequence (O22476 24-1196): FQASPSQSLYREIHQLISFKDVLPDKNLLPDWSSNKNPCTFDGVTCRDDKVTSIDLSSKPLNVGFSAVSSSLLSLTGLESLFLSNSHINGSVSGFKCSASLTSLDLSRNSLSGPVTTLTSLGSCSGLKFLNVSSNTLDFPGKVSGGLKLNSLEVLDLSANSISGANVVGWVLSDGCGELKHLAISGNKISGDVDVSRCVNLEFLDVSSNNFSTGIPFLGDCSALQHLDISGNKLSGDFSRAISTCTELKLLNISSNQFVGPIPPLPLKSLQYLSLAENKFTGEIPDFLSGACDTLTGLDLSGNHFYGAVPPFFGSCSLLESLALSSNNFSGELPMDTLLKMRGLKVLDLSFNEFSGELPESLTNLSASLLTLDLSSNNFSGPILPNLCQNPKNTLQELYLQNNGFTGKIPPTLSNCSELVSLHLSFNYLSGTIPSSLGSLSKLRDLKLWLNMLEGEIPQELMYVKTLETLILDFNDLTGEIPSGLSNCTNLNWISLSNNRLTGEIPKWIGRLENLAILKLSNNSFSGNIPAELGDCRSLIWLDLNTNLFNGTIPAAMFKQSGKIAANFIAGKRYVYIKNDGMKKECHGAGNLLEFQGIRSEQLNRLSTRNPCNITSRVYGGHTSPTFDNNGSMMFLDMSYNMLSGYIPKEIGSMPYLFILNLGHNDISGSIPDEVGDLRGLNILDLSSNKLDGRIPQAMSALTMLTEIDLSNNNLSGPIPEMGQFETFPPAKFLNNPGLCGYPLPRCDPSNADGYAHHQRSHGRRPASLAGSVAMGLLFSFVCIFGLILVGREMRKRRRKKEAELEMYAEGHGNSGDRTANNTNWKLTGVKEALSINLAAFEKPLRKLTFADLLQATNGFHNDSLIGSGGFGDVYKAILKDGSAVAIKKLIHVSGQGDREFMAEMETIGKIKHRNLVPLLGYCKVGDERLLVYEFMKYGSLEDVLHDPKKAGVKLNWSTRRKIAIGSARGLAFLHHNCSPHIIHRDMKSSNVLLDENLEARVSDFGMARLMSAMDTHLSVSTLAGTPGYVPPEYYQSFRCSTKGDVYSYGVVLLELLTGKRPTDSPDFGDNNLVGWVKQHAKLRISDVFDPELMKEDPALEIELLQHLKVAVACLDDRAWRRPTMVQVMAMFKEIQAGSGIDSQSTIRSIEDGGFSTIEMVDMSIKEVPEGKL
Conditions: for recognition of steroid ligand by BRI1: known behaviour, explained from the co-crystal structure (alkyl side chain pocket, B-ring contacts)

| SMILES | recognition of steroid ligand by BRI1 | affinity of binding to BRI1 (stated in words, no method or figure given) |
| --- | --- | --- |
| CC(C)[C@H](C)[C@@H](O)[C@H](O)[C@@H](C)[C@H]1CC[C@H]2[C@@H]3CC(=O)[C@H]4C[C@H](O)[C@H](O)C[C@]4(C)[C@H]3CC[C@]12C [castasterone] | tolerated by BRI1 |  |
| CC(C)[C@H](C)[C@@H](O)[C@H](O)[C@@H](C)[C@H]1CC[C@H]2[C@@H]3COC(=O)[C@H]4C[C@H](O)[C@H](O)C[C@]4(C)[C@H]3CC[C@]12C [brassinolide] |  | nanomolar |
| C[C@H]([C@H](O)CCC(C)(C)O)[C@H]1CC[C@@]2(O)C3=CC(=O)[C@@H]4C[C@@H](O)[C@@H](O)C[C@]4(C)[C@H]3CC[C@]12C [ecdysone] | cannot be recognized by BRI1 |  |
